Patent US10053477B2, “Spirocyclic aryl phosphorus oxide and aryl phosphorus sulfide” (QILU PHARMACEUTICAL CO., LTD., priority 2014, dated 2018)
pIC50: −log10 of the molar value.

Tests used:
ALK wild-type = molecular target: T1, ALK wild-type (Homo sapiens, UniProt Q9UM73); experiment: ALK wild-type enzymatic inhibition (HTRF); type: biochemical; details: 30 μM ATP
T1 construct: purchased Carna Biosciences (Japan)
Protocol: (§1) Enzyme: ALK wild-type, ALK C1156Y and ALK L1196M supplied by Carna Biosciences (Japan), EGFR T790M/L858R supplied by Life technology (Madison, Wis.).
(§2) HTRF kit: supplied by Cis-Bio International, with Eu-marked TK1 antibody, XL665- and biotin-labelled TK1 polypeptide substrates.
10 μl wild-type ALK enzyme reaction mixture system: 0.5 nM wild-type ALK, 1 μM biotin-TK1 peptide, 30 μM ATP. Reaction buffer: 50 mM Hepes (pH7.5), 10 mM MgCl2, 0.01 mM NaV3VO4.
(§3) Incubation was carried out for 60 minutes at room temperature. Detection was by Envision.

ALK L1196M = molecular target: T2, ALK L1196M (Homo sapiens, UniProt Q9UM73, L1196M); experiment: ALK L1196M enzymatic inhibition (HTRF); type: biochemical; details: 30 μM ATP
T2 construct: purchased Carna Biosciences (Japan)
T2 sequence (Q9UM73 19-1620 L1196M): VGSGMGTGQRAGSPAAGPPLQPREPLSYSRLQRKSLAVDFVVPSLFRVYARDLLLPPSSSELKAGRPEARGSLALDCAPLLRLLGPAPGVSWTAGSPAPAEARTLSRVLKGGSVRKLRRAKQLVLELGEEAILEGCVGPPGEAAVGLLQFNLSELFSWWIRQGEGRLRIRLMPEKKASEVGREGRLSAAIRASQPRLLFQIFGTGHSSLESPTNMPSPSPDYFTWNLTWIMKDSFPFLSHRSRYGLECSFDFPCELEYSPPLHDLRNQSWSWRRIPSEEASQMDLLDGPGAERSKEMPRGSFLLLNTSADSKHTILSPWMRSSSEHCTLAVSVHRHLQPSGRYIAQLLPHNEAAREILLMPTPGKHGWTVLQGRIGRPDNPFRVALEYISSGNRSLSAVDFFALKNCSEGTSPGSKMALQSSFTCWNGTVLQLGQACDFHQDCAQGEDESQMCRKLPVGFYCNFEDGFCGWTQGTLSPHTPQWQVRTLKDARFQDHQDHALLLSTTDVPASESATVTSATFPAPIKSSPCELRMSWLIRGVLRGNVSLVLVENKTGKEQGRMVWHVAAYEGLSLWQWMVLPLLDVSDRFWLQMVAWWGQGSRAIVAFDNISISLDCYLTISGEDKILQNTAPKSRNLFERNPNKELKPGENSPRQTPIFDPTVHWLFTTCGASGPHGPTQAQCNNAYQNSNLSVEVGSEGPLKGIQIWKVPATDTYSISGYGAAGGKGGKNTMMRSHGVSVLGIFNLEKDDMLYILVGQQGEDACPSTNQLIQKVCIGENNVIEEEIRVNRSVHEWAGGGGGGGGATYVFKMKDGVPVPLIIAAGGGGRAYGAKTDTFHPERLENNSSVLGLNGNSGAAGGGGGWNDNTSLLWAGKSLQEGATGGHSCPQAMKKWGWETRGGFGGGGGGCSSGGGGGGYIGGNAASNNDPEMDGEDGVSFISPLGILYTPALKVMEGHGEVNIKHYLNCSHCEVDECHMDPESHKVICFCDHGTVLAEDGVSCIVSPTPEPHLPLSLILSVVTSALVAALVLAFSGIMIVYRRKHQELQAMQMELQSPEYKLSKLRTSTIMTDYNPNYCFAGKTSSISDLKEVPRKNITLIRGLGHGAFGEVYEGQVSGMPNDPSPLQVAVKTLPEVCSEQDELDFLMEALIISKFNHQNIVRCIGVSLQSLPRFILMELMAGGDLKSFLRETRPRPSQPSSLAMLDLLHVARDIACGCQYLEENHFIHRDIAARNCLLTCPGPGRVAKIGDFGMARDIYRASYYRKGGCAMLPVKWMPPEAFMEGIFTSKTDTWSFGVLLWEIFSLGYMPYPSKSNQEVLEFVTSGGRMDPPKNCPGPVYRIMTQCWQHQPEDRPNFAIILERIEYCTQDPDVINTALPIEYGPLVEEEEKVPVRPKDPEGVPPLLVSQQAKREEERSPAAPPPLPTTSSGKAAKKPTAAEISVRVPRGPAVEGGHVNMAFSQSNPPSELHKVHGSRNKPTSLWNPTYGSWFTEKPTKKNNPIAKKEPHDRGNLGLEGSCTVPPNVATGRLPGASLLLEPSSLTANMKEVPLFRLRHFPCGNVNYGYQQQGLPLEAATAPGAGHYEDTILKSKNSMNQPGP
Protocol: as §1, §2
Reaction buffer: 50 mM Hepes (pH7.5), 10 mM MgCl2, 0.01 mM NaV3VO4.
as §3

ALK C1156Y = molecular target: T3, ALK C1156Y (Homo sapiens, UniProt Q9UM73, C1156Y); experiment: ALK C1156Y enzymatic inhibition (HTRF); type: biochemical; details: 30 μM ATP
T3 construct: purchased Carna Biosciences (Japan)
T3 sequence (Q9UM73 19-1620 C1156Y): as the sequence (Q9UM73 19-1620 L1196M) above, with C1138Y, M1178L counted along it
Protocol: as §1, §2
Reaction buffer: 50 mM Hepes (pH7.5), 10 mM MgCl2, 0.01 mM NaV3VO4. […] Reaction was reacted at room temperature for 60 minutes.
as §3

EGFR T790M/L858R = molecular target: T4, EGFR T790M/L858R (Homo sapiens, UniProt P00533, L858R/T790M); experiment: EGFR T790M/L858R enzymatic inhibition (HTRF); type: biochemical; details: 20 μM ATP
T4 construct: purchased Life technology (Madison, Wis.)
T4 sequence (P00533 25-1210 T790M/L858R): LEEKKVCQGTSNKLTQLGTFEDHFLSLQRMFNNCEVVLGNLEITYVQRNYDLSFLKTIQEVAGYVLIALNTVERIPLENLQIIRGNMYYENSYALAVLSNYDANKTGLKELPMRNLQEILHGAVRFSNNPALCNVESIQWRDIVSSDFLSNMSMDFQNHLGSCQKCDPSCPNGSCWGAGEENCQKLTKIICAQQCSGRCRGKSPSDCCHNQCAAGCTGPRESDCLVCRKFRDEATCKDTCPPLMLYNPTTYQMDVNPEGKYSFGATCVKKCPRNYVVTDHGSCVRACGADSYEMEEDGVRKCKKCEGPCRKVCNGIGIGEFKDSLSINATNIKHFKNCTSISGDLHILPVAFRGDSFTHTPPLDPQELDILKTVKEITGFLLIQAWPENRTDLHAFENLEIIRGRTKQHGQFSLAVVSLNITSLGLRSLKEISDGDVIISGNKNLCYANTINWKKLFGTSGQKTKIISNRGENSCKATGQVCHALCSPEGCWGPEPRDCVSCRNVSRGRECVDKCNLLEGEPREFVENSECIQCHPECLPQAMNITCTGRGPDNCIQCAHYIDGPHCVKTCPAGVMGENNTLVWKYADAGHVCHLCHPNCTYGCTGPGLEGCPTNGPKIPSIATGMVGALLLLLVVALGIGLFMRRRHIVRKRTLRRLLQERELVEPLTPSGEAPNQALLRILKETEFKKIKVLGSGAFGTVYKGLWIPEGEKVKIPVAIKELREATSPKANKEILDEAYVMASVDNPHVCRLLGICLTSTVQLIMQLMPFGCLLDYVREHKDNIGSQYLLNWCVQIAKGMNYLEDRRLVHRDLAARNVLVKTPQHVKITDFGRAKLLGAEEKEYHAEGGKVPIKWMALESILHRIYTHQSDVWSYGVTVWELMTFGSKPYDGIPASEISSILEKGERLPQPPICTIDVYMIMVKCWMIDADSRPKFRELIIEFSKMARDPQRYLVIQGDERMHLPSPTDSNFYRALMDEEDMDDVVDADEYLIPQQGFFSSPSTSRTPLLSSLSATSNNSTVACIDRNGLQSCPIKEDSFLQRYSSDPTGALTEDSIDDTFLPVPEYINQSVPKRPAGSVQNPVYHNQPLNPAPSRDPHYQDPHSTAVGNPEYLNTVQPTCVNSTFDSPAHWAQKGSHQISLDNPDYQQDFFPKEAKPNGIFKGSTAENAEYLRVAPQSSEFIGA
Protocol: as §1, §2
The compound to be tested is diluted at a gradient by 3 times thereby giving 11 gradients starting from […] to 0.017 nM for the final concentration.
10 μl EGFR T790M/L858R enzyme reaction mixture system: 0.08 nM EGFR T790M/L858R, 1 μM biotin-TK1 peptide, 20 μM ATP. Reaction buffer: 50 mM Hepes (pH7.5), 10 mM MgCl2, 0.01 mM NaV3VO4. The reaction plate was white Proxiplate 384-Plus plate (PerkinElmer). Reaction was reacted at room temperature for 60 minutes.
Detecting reaction: 10 μl testing reagent was added to the reaction plate, the final concentration of Antibody was 2 nM, XL665 was 62.5 nM. Incubation was carried out for 60 minutes at room temperature. Detection was by Envision.

[1] = test system: LU-01-0015 xenotransplantation (PDX) from lung cancer patients; experiment: In vivo efficacy, LU-01-0015 xenotransplantation (PDX) from lung cancer patients; design: species or system BALB/c nude mice; details: 25 mg/kg orally everyday
Description: BALB/c nude mice, female, 6 to 8 weeks, about 18 to 22 g bodyweight, was kept in a special environment without pathogens, and a single ventilated cage (5 mice per cage). Beddings and water in all the cages were disinfected before use. […] 80 mice were supplied by Shanghai BK Laboratory Animal Co., LTD for study. Each mouse was subcutaneously implanted tumor tissue (20-30 mm^3) at right flank for growth of tumor. When the average tumor volume reached about 250-300 mm^3, the assay started. Test compounds were delivered orally everyday, 25 mg/kg. Tumor size was measured with two-dimensional caliper every 3 days, size was recorded by mm^3, and calculated by the following formula: V=V=0.5a×b2, where a and b are respectively the long diameter and short diameter length of the tumor. The antitumor efficacy was determined by dividing the average increased tumor volume in compound-treated animal by the average increased tumor volume in untreated animal.

[2] = test system: LU-01-0319 Crizotinib resistance model; experiment: In vivo anti-tumor efficacy, Crizotinib resistant LU-01-0319 xenotransplantation (PDX) tumor; design: species or system BALB/c nude mice
Description: LU-01-0319 xenotransplantation tumor models initially obtained from clinical sample through surgical resection were implanted into nude mice, which was defined as a batch of P0 (LU-01-0319-P0). The next batch was defined as P1 (LU-01-0319-P1) which was implanted tumors from P0. FP3 was regained from P2, the next batch was defined as FP4 which was implanted tumors from FP3. […] The continuous increasing tumors were defined as LU-01-0319 antitumor models. BALB/c nude mice, female, 6 to 8 weeks, about 18 to 22 g bodyweight, 75 mice were used for study, supplied by Shanghai BK Laboratory Animal Co., LTD. Tumour biopsies (about 30 mm^3) of LU-01-0319R FP6 were implanted subcutaneously on right side of each mouse for growth of tumor. […] Dose of Crizotinib was appropriately varied depending on the tumor size. When average tumor volume reached about ˜500 mm^3, the assay began. Once a day the compounds to be tested were orally administered. Tumor size were measured twice a week with a caliper at two dimensions, and calculated with the following formula: V=0.5a×b2, where a and b are respectively long diameter and short diameter of the tumor. The antitumor efficacy was determined by dividing the average increased tumor volume in compound-treated animal by the average increased tumor volume in untreated animal.

[3] = test system: LU-01-0319 xenotransplantation (PDX) from lung cancer patients; experiment: In vivo efficacy, LU-01-0319 xenotransplantation (PDX) from lung cancer patients; design: species or system BALB/c nude mice; details: 10 mg/kg orally everyday
Description: BALB/c nude mice, female, 6 to 8 weeks, about 18 to 22 g bodyweight, was kept in a special environment without pathogens, and a single ventilated cage (5 mice per cage). Beddings and water in all the cages were disinfected before use. All the animal had free access to standard authorized commercially available lab diet. 80 mice were supplied by Shanghai BK Laboratory Animal Co., LTD for study. Each mouse was subcutaneously implanted tumor tissue (20-30 mm^3) at right flank for growth of tumor. When the average tumor volume reached about 250-300 mm^3, the assay started. Test compounds were delivered orally everyday, 10 mg/kg. Tumor size was measured with two-dimensional caliper every 3 days, size was recorded by mm^3, and calculated by the following formula: V=V=0.5a×b2, where a and b are respectively the long diameter and short diameter length of the tumor. The antitumor efficacy was determined by dividing the average increased tumor volume in compound-treated animal by the average increased tumor volume in untreated animal.

T1 sequence (Q9UM73 19-1620): as the sequence (Q9UM73 19-1620 L1196M) above, with M1178L counted along it

SMILES: COc1cc(N2CCC3(CC2)CN(C)C3)ccc1Nc1ncc(Cl)c(Nc2ccccc2P(C)(C)=O)n1 [Compound 5, (2-((5-Chloro-2-((2-methoxy-4-(2-methyl-2,7-diazaspiro[3.5]nonan-7-yl)phenyl)amino)pyrimidin-4-yl)amino)phenyl)dimethyl phosphine oxide]
- pIC50 (ALK wild-type): 7.00 to 9.00
- pIC50 (ALK L1196M): 7.00 to 9.00
- pIC50 (ALK C1156Y): 7.00 to 9.00
- pIC50 (EGFR T790M/L858R): 7.00 to 9.00
- Tumor volume ([1]; 3 days): 259 mm^3
- Tumor volume ([1]; 6 days): 214 mm^3
- Tumor volume ([1]; 9 days): 172 mm^3
- Tumor volume ([1]; 12 days): 117 mm^3
- Tumor volume ([1]; 16 days): 104 mm^3
- Tumor volume ([1]; 19 days): 123 mm^3
- Tumor volume ([1]; 23 days): 124 mm^3

SMILES: COc1ccc(C2CC3(CCN(C)C3)C2)cc1Nc1ncc(Cl)c(Nc2ccccc2P(C)(C)=O)n1 (centres unmarked) [Compound 1, (2-((5-chloro-2-((2-methoxy-5-(6-methyl-6-azaspiro[3.4]octan-2-yl)phenyl)amino)pyrimidin-4-yl)amino)phenyl)dimethylphosphine oxide]
- pIC50 (ALK wild-type): 7.00 to 9.00
- pIC50 (ALK L1196M): 6.00 to 7.00
- pIC50 (ALK C1156Y): 6.00 to 7.00
- pIC50 (EGFR T790M/L858R): 6.00 to 7.00

SMILES: COc1cc(N2CCC3(CN(C)C3)C2)ccc1Nc1ncc(Cl)c(Nc2ccccc2P(C)(C)=O)n1 [Compound 7, (2-((5-Chloro-2-((2-methoxy-4-(2-methyl-2,6-diazaspiro[3.4]octan-6-yl)phenyl)amino)pyrimidin-4-yl)amino)phenyl)dimethyl phosphine oxide]
- pIC50 (ALK wild-type): 7.00 to 9.00
- pIC50 (ALK L1196M): 6.00 to 7.00
- pIC50 (ALK C1156Y): 6.00 to 7.00
- pIC50 (EGFR T790M/L858R): 6.00 to 7.00

SMILES: COc1cc(N2CCC3(CCN(C)CC3)CC2)ccc1Nc1nc(Nc2ccccc2P(C)(C)=O)c2cc[nH]c2n1 [Compound 17, (2-((2-(amino)-7H-pyrrolo[2,3-D](2-methoxy-4-(9-methyl-3,9-diazaspiro[5.5]undecan-3-yl)phenyl)pyrimidin-4-yl)amino)phenyl)dimethyl phosphine oxide]
- pIC50 (ALK wild-type): 7.00 to 9.00
- pIC50 (ALK L1196M): 7.00 to 9.00
- pIC50 (ALK C1156Y): 7.00 to 9.00
- pIC50 (EGFR T790M/L858R): 7.00 to 9.00

SMILES: COc1cc(N2CCC3(CC2)CCN(C(C)C)CC3)ccc1Nc1ncc(Cl)c(Nc2ccccc2P(C)(C)=O)n1 [Compound 10, (2-((5-Chloro-2-((4-(9-isopropyl-3,9-diazaspiro[5.5]undecan-3-yl)-2-methoxyphenyl)amino)pyrimidin-4-yl)amino)phenyl)dimethyl phosphine oxide]
- pIC50 (ALK wild-type): 7.00 to 9.00
- pIC50 (ALK L1196M): 7.00 to 9.00
- pIC50 (ALK C1156Y): 7.00 to 9.00
- pIC50 (EGFR T790M/L858R): 7.00 to 9.00

SMILES: COc1cc(N2CCC3(CCN(C)CC3)CC2)ccc1Nc1ncc(Cl)c(Nc2ccccc2P(C)(C)=O)n1 [Compound 9, (2-((5-Chloro-2-((2-methoxy-4-(9-methyl-3,9-diazaspiro[5.5]undecan-3-yl)phenyl)amino)pyrimidin-4-yl)amino)phenyl)dimethyl phosphine oxide]
- pIC50 (ALK wild-type): 7.00 to 9.00
- pIC50 (ALK L1196M): 7.00 to 9.00
- pIC50 (ALK C1156Y): 7.00 to 9.00
- pIC50 (EGFR T790M/L858R): 7.00 to 9.00
- Tumor volume ([1]; 3 days): 158 mm^3
- Tumor volume ([1]; 6 days): 108 mm^3
- Tumor volume ([1]; 9 days): 82 mm^3
- Tumor volume ([1]; 12 days): 58 mm^3
- Tumor volume ([1]; 16 days): 48 mm^3
- Tumor volume ([1]; 19 days): 46 mm^3
- Tumor volume ([1]; 23 days): 43 mm^3
- Tumor volume ([2]; 0 day, dosage 3 mg/Kg orally once a day): 502 mm^3
- Tumor volume ([2]; 0 day, dosage 10 mg/Kg orally once a day): 502 mm^3
- Tumor volume ([2]; 3 days, dosage 3 mg/Kg orally once a day): 722 mm^3
- Tumor volume ([2]; 3 days, dosage 10 mg/Kg orally once a day): 557 mm^3
- Tumor volume ([2]; 7 days, dosage 3 mg/Kg orally once a day): 859 mm^3
- Tumor volume ([2]; 7 days, dosage 10 mg/Kg orally once a day): 416 mm^3
- Tumor volume ([2]; 10 days, dosage 3 mg/Kg orally once a day): 1101 mm^3
- Tumor volume ([2]; 10 days, dosage 10 mg/Kg orally once a day): 261 mm^3
- Tumor volume ([2]; 13 days, dosage 3 mg/Kg orally once a day): 1218 mm^3
- Tumor volume ([2]; 13 days, dosage 10 mg/Kg orally once a day): 196 mm^3
- Tumor volume ([2]; 17 days, dosage 3 mg/Kg orally once a day): 1441 mm^3
- Tumor volume ([2]; 17 days, dosage 10 mg/Kg orally once a day): 133 mm^3
- Tumor volume ([2]; 19 days, dosage 3 mg/Kg orally once a day): 1521 mm^3
- Tumor volume ([2]; 19 days, dosage 10 mg/Kg orally once a day): 102 mm^3
- Tumor volume ([3]; 0 days): 371 mm^3
- Tumor volume ([3]; 2 days): 359 mm^3
- Tumor volume ([3]; 6 days): 369 mm^3
- Tumor volume ([3]; 9 days): 301 mm^3
- Tumor volume ([3]; 13 days): 305 mm^3
- Tumor volume ([3]; 16 days): 291 mm^3
- Tumor volume ([3]; 20 days): 203 mm^3
- Tumor volume ([3]; 23 days): 172 mm^3

SMILES: CN1CCC2(CCC(c3ccc(Nc4ncc(Cl)c(Nc5ccccc5P(C)(C)=O)n4)c(OC(F)F)c3)CC2)CC1 [Compound 28, (2-((5-Chloro-2-((2-(difluoromethoxy)-4-(3-methyl-3-azaspiro[5.5]undecan-9-yl)phenyl)amino)pyrimidin-4-yl)amino)phenyl)dimethyl phosphine oxide]
- pIC50 (ALK wild-type): 7.00 to 9.00
- pIC50 (ALK L1196M): 7.00 to 9.00
- pIC50 (ALK C1156Y): 7.00 to 9.00
- pIC50 (EGFR T790M/L858R): 7.00 to 9.00

SMILES: COc1cc(N2CCC3(CCN(C)CC3)CC2)ccc1Nc1ncnc(Nc2ccccc2P(C)(C)=O)n1 [Compound 16, (2-((4-((2-Methoxy-4-(9-methyl-3,9-diazaspiro[5.5]undecan-3-yl)phenyl)amino)-1,3,5-triazin-2-yl)amino)phenyl)dimethyl phosphine oxide]
- pIC50 (ALK wild-type): 6.00 to 7.00
- pIC50 (ALK L1196M): 6.00 to 7.00
- pIC50 (ALK C1156Y): 6.00 to 7.00
- pIC50 (EGFR T790M/L858R): 7.00 to 9.00
